# Measurements as given in patent US10966911B2, “Melanin decomposition inhibitor” (KAO CORPORATION, priority 2016, dated 2021).
# Legend:
# LC3-II and p62 proteins [1] = assay: Autophagy markers LC3-II and p62 in epidermal cells (Western blotting); assay type: cell-based, human; details: berberine 10, 30 or 60 μM, 24 hours, FIG. 7
# Description: As a part of elucidation of the skin color darkening action of berberine, the effect on autophagy in epidermal cells was examined. Berberine was added in a medium for the epidermal cells seeded in a 6-well plate at a final concentration of 10, 30 or 60 μM and the epidermal cells were cultured for 24 hours. Protein was extracted and subjected to Western-blotting analysis to determine the expression levels of LC3-II and p62 proteins serving as markers for autophagy.
# As a part of elucidation of skin color darkening action of phenformin and berberine, an effect of phenformin and berberine on melanosome decomposition in, epidermal cells was examined. The epidermal cells were isolated from a foreskin tissue obtained from a Skin Bank of the United States, National Disease Research Interchange (NDRI) in accordance with a predetermined method, and cultured. Melanosomes were prepared from MNT-1 cell strain in accordance with a predetermined method (Murase et al. (2013), J Invest Dermatol, 133: 2416-2424). A predetermined amount of melanosomes was added to epidermal cells and the cells were cultured for 24 hours. Melanosome prepared from MNT-1 cell strain cultured in an area of 35 cm^2 was added per well of the 6-well plate. […]
# human skin tissue [2] = assay: Skin color darkening in cultured human skin tissue (appearance observed and photographed); assay type: cell-based
# Description: (§1) (1) A normal human skin tissue obtained at the time of a surgical operation was purchased from a Skin Bank of the United States, National Disease Research Interchange (NDRI). The human skin tissue, from which subcutaneous fat was previously removed, was cut into pieces having a size of about 1 cm×about 1 cm by knife and cultured by using a 6-well plate at 37° C. under a 5% CO2 atmosphere. Advanced-DMEM medium containing 10% (v/v) Fetal Bovine Serum (FBS) (Life Technologies, respectively) was used for culture.
# (2) The human skin tissue prepared in accordance with the method described in the above (1) was allowed to stand still in the 6-well plate. Then, phenformin was added in the medium so as to have a final concentration of 300 μM and tissue culture was initiated. The medium replacement was performed every 2 to 3 days. Six days or eight days later, the appearance of the skin tissue was observed and photographed.
# A human skin tissue prepared in accordance with the method of Example 1 (1) was allowed to stand still in a 6-well plate. Then, phenformin was added in a medium at a final concentration of 100, 200 or 300 μM and tissue culture was initiated. Four days later, the appearance of the skin tissue was observed and photographed.
# Skin tissues prepared in accordance with the method of Example 1 (1) were allowed to stand still in 6-well plates. […]
# Pmel17 = assay: Melanosome decomposition in epidermal cells that incorporated MNT-1 melanosomes (Pmel17 Western blotting); assay type: cell-based, human; details: 24 hours, FIG. 8
# Description: As a part of elucidation of skin color darkening action of phenformin and berberine, an effect of phenformin and berberine on melanosome decomposition in, epidermal cells was examined. The epidermal cells were isolated from a foreskin tissue obtained from a Skin Bank of the United States, National Disease Research Interchange (NDRI) in accordance with a predetermined method, and cultured. Melanosomes were prepared from MNT-1 cell strain in accordance with a predetermined method (Murase et al. (2013), J Invest Dermatol, 133: 2416-2424). A predetermined amount of melanosomes was added to epidermal cells and the cells were cultured for 24 hours. Melanosome prepared from MNT-1 cell strain cultured in an area of 35 cm^2 was added per well of the 6-well plate. After the cells were washed with PBS, the epidermal cells which had incorporated melanosome therein were added with phenformin at a final concentration of 100 or 200 μM, berberine at a final concentration of 10, 30 or 60 μM and a Goldenseal extract rich in berberine at a final concentration 0.2 or 0.5% (v/v), and the cells were cultured for a further 24 hours. Protein was extracted and subjected to Western-blotting analysis to determine the expression level of Pmel17, a major protein constituting melanosome.
# human skin tissue [3] = assay: Fontana-Masson staining of cultured human skin tissue (melanin deposition); assay type: cell-based
# Description: as §1, with “culture. (3) Next, the skin tissue cultured was subjected to Fontana-Masson staining to observe deposition of melanin. In the staining, Fontana-Masson Stain Kit manufactured by American […] Scientific, Inc. was used.” for “culture.”
# AMPK = details: Non-Patent Literature 2; cited from earlier work
# LC3-II and p62 proteins [4] = assay: Autophagy markers LC3-II and p62 in cultured human hair follicle (Western blotting); assay type: cell-based; details: phenformin 200 μM, FIG. 11
# Description: A human hair follicle was surgically isolated from a normal human scalp tissue ([…]), which was obtained at the time of surgical operation, and given by a USA dermatologist. The isolated human hair follicle was cultured at 37° C. under a 5% CO2 atmosphere in William E medium supplemented with 20 μg/mL insulin (Sigma-Aldrich), 40 ng/mL hydrocortisone (Sigma-Aldrich), 2 mM L-glutamine (Life Technologies) and a 1% (v/v) penicillin/streptomycin solution (Life Technologies) (all were final concentrations). The isolated human hair follicle was allowed to stand still in a 24-well plate and phenformin was added at a final concentration of 200 μM in the medium. Tissue culture was initiated. Medium replacement was performed Day 1 and Day 3 after the initiation of culture. Follicular tissue at Day 5 after the initiation of culture was embedded in OCT compound (TissueTek) and frozen. These follicular tissues were subjected to Fontana-Masson staining and deposition of melanin was observed.
# From the human hair follicle cultured in accordance with the method of Example 8, protein was extracted and subjected to Western-blotting analysis. In this manner, expression levels of autophagy markers, i.e., LC3-II and p62 proteins, were analyzed.
# LC3-II and p62 proteins [5] = assay: Western blotting of autophagy markers LC3-II and p62 in cultured human skin tissue; assay type: cell-based; details: 4 days, phenformin at different concentrations, FIG. 3B
# Description: as §1
# Further, the skin tissue prepared in accordance with the method of Example 1 (1) was allowed to stand still in a 6-well plate and cultured in the absence or presence of phenformin at a different concentration for 4 days. Proteins were extracted from the skin tissues and subjected to Western-blotting analysis. In this manner, the expression levels of LC3-II and p62 proteins, which are localized in autophagosome membrane and finally decomposed by autophagy, were determined. A mouse anti-human LC3 antibody (Cosmo Bio) and rabbit anti-human p62 antibody (MBL International) were used as primary antibodies.
# human hair follicle = assay: Hair color darkening in cultured human hair follicle (Fontana-Masson staining); assay type: cell-based; details: phenformin 200 μM, Day 5, FIG. 10
# Pmel17 protein = assay: Western blotting of Pmel17 protein in cultured human skin tissue; assay type: cell-based; details: cultured 6 days with or without phenformin, FIG. 3A
# Description: as §1
# The skin tissue prepared in accordance with the method of Example 1 (1) was allowed to stand still in a 6-well plate and cultured in the presence or absence of phenformin for 6 days. Protein was extracted from the skin tissue and used for quantitative analysis of Pmel17 protein, which is a major protein constituting a melanosome, by Western-blotting. Using a mouse anti-human Pmel17 antibody (DAKO) as a primary antibody and a goat anti-mouse IgG antibody as a secondary antibody, signals were detected by using ECL prime reagent (GE Healthcare) and ODYSSEY Fc Imaging System (LICOR). Beta-actin protein as an internal standard was detected in the same manner.
# [6] = tested on: AMPK (AMP-activated protein kinase); details: human embryonic kidney cells (HEK 293 T cells); Non-Patent Literature 1; cited from earlier work
# LC3-II = assay: Autophagy activity of epidermal keratinocytes (LC3-II accumulation with chloroquine diphosphate, Western blotting); assay type: cell-based, human; details: chloroquine diphosphate 10 μM, 24 hours, FIG. 18
# Description: Normal human neonatal foreskin-derived epidermal keratinocytes (Human Epidermal Keratinocytes, neonatal (HEKn) lightly; keratinocytes) were purchased from Thermo Fisher Scientific. […] The keratinocytes were cultured in a grow medium (Epilife) epidermal keratinocytes (Thermo Fisher Scientific) supplemented with a growth additive (Humedia-KG) (manufactured by Kurabo Industries Ltd.) at 37° C. in 5 vol % CO2 atmospheric conditions.
# Keratinocytes were seeded in a 6-well plate at a density of 1.5×10^5 cells/well (2 mL/well). The following day, proguanil was added so as to obtain a final concentration of 0.3, 1, 3, 10 or 30 μM. Culture was performed at 37° C. in 5 vol % CO2 atmospheric conditions. As a control, the same amount of DMSO was added. […] The following day, Chloroquine diphosphate attached to LC3B Antibody Kit for Autophagy (Thermo Fisher Scientific) was added so as to obtain a final concentration of 10 μM. Culture was performed at 37° C. in 5 vol % CO2 atmospheric conditions for 24 hours. After completion of the culture, SDS-PAGE and western blotting were performed in accordance with the method as mentioned above. As a primary antibody, anti-LC3B (1:1000) attached to the kit mentioned above was used. […] Expression of β-actin as the internal standard was evaluated by using monoclonal antibody specific for β-actin (Sigma-Aldrich, 1:5000).
structure (smiles),measurement,setting,value
"COc1ccc2cc3[n+](cc2c1OC)CCc1cc2c(cc1-3)OCO2 [berberine, Berberine]",expression level of LC3-II protein,LC3-II and p62 proteins [1],LC3-II and p62 proteins are accumulated in a berberine dose-dependent manner
same,expression level of p62 protein,LC3-II and p62 proteins [1],LC3-II and p62 proteins are accumulated in a berberine dose-dependent manner
same,darkening of skin color,"human skin tissue [2]; berberine 10 or 30 μM (Caucasian) and 30 or 100 μM (African American), six or four days, FIGS. 5 and 6",darkening of skin color was induced in a berberine dose-dependent manner
same,expression level of Pmel17,"Pmel17; berberine 10, 30 or 60 μM",accumulation of Pmel17 protein in a dose-dependent manner was observed
same,deposition of melanin on the epidermal layer (tissue staining),"human skin tissue [3]; berberine 10 or 30 μM and 30 or 100 μM, FIGS. 5 and 6",Deposition of melanin on the epidermal layer was confirmed
same,AMPK activation action,AMPK,has an AMPK activation action
"N=C(N)NC(=N)NCCc1ccccc1 [phenformin, Phenformin]",expression level of LC3-II protein,LC3-II and p62 proteins [4],Accumulation of LC3-II and p62 proteins by addition of phenformin was observed
same,expression level of p62 protein,LC3-II and p62 proteins [4],Accumulation of LC3-II and p62 proteins by addition of phenformin was observed
same,expression level of LC3-II protein,LC3-II and p62 proteins [5],accumulation on both markers was observed
same,expression level of p62 protein,LC3-II and p62 proteins [5],accumulation on both markers was observed
same,hair color darkening,human hair follicle,Apparent hair color darkening was induced
same,amount of Pmel17 protein,Pmel17 protein,amount of Pmel17 protein is increased
same,skin color darkening (dose dependent),"human skin tissue [2]; phenformin 100, 200 or 300 μM, 4 days, FIG. 4",Recognizable darkening was observed in a dose-dependent manner
same,autophagy,[6],activates autophagy through activation of AMPK
same,expression level of Pmel17,Pmel17; phenformin 100 or 200 μM,accumulation of Pmel17 protein in a dose-dependent manner was observed
same,accumulation of melanin in the epidermis,"human skin tissue [3]; phenformin 300 μM, skin tissue, FIGS. 2A, 2B",significant accumulation of melanin in the epidermis was observed
same,melanin deposition,"human skin tissue [3]; phenformin 100, 200 or 300 μM, 4 days, data not shown","melanin deposition, which is correlated with a change in skin color, was confirmed"
CCN(CC)CCCC(C)Nc1ccnc2cc(Cl)ccc12 (stereo not drawn) [Chloroquine diphosphate],accumulation of LC3-II,LC3-II,Accumulation of LC3-II was induced
